Here are results for 2 molecules from BindingDB's records for doi:10.1074/jbc.M606784200 (Chul, 2007).

Assay [1] has as its target T1, Aldo-keto reductase family 1 member C3 (Homo sapiens, UniProt P42330).
T1 sequence (P42330 whole entry): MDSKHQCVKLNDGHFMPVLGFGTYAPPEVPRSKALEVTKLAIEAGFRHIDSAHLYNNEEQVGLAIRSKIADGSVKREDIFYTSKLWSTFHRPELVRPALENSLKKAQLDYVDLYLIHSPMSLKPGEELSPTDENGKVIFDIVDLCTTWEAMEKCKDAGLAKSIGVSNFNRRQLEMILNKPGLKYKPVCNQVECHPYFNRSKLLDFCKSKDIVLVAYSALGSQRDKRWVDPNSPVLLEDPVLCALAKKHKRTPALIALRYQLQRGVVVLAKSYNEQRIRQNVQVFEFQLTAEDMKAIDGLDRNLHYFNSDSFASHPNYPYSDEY
Put plainly: Scintillation Proximity Assay (SPA). To be noted: pH 6; 22 °C. Here is the method:
SPA beads conjugated to anti-mouse IgG were incubated overnight in buffer with anti-testosterone monoclonal antibody. The enzymatic reaction was monitored by its conversion of 4-androstene-3, 17-dione to testosterone. The amount of [14C] testosterone produced in each well was determined by scintillation counting on a Perkin Elmer TopCount instrument and collected as DPMs. The data was then analyzed and percent inhibition and/or IC50 values, based on 10 point serially diluted curves in duplicate or triplicate, were calculated using Microsoft Excel and XLFit programs.

Assay [2] has as its target T1, Aldo-keto reductase family 1 member C3. Put plainly: Inhibition Study on the Interconversion of Testosterone to Androstenedione (4-dione). The note with it: pH 7.5; 37 °C. Here is the method:
A radioactive assay was used for the enzyme kinetics in the presence of EM1404 at different concentrations for its Ki determination. Reactions were initiated by the addition of enzyme to the reaction mixture containing substrate and test compounds. After the reaction, the steroids were extracted, separated by TLC migration, and analyzed by phosphorimaging. The Km for testosterone oxidation in the absence of EM-1404, and four apparent Km values in the presence of 1, 3, 10, and 25 nM EM-1404, were determined. Ki value was further determined by a plot of Km vs. the inhibitor concentration.

Regarding `COCCOc1cc2c(cc1C(=O)ON)C1CC[C@@]3(C)C(CC[C@@]34CCC(C)(C)C(=O)O4)C1CC2` (stereo partly drawn) [(2R,15'S)-5'-(2-methoxyethoxy)-5,5,15'-trimethyl-6-oxospiro[oxane-2,14'-tetracyclo[8.7.0.0^{2,7}.0^{11,15}]heptadecane]-2',4',6'-triene-4'-carboxylate], in assay [1], 9.5 nM corresponded to half-maximal inhibition (IC50). As for `CC1(C)CC[C@@]2(CCC3C4CCc5cc(C(N)=O)ccc5C4CC[C@@]32C)OC1=O` (stereo partly drawn) [(2R,15'S)-5,5,15'-trimethyl-6-oxospiro[oxane-2,14'-tetracyclo[8.7.0.0^{2,7}.0^{11,15}]heptadecane]-2',4',6'-triene-5'-carboxamide], the IC50 (usually the point on the concentration scale where inhibition reaches its midpoint) in assay [1] stood at 3.2 nM. Affinity in assay [2] was put at a Ki of 6.9 nM.
